Test results taken from ChEMBL document CHEMBL4725437, “P450s under Restriction (PURE) Screen Using HepaRG and Primary Human Hepatocytes for Discovery of Novel HBV Antivirals” (ACS Med Chem Lett, 2020).
The source made the active and inactive calls. The calls are words filed in the database; no cut-off is given here.

Assays:
CYP1A2 [1] = biological target: T1, CYP1A2 (Homo sapiens, UniProt P05177); test: (§1) Inhibition of CYP1A2 in HBV-infected human HepaRG cells at 10 mM using luciferin-1A2 as substrate treated for 1 hr on day 5 post-infection followed by removal of media and supplemented with fresh media and further incubated for 3 days in presence of 50 uM SKF-525A by P450-Glo chemiluminescent assay relative to control; type: ADME, tissue-based; settings: probe luciferin-1A2, with SKF-525A 50 uM
T1 sequence (P05177 whole entry): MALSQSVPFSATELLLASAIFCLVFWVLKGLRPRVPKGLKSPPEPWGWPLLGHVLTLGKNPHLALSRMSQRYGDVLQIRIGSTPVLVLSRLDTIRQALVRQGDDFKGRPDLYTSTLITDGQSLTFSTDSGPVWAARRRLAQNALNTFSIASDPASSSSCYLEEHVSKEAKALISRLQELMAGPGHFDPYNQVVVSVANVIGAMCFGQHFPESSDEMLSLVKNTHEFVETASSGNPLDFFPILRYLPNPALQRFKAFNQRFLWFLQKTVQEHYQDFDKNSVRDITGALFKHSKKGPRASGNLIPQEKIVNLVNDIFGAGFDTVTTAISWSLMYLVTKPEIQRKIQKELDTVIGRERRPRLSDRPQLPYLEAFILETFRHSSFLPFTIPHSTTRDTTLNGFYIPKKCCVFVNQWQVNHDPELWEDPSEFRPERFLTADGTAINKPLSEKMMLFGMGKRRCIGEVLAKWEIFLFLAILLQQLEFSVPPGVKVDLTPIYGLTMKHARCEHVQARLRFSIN

CYP1A2 [2] = biological target: T1, CYP1A2; test: as §1, with “then followed by treatment for 1 hr on day 8 post-infection followed by removal” for “in presence”, “media and supplemented with fresh media and further incubated for 3 days and measured on day 11 post-infection” for “50 uM SKF-525A”; type: ADME, tissue-based; settings: probe luciferin-1A2
HepaRG [3] = test: (§2) Cytotoxicity against human HepaRG cells infected with HBV assessed as reduction in cell viability at 0.2 to 20 mM treated for 1 hr on day 5 post-infection followed by removal of media and supplemented with fresh media and further incubated for 3 days then followed by treatment for 1 hr on day 8 post-infection followed by removal of media and supplemented with fresh media and further incubated for 3 days and measured on day 11 post-infection by Celltiter-Glo assay; type: cell-based; settings: 20000 µM, dose 0.2-20 mM
Cytochrome P450 1A2 [4] = biological target: T2, Cytochrome P450 1A2 (Homo sapiens, UniProt P05177); test: (§3) Inhibition of CYP1A2 in HBV-infected human HepaRG cells at 0.2 to 20 mM using luciferin-1A2 as substrate treated for 1 hr on day 5 post-infection followed by removal of media and supplemented with fresh media and further incubated for 3 days then followed by treatment for 1 hr on day 8 post-infection followed by removal of media and supplemented with fresh media and further incubated for 3 days and measured on day 11 post-infection by P450-Glo chemiluminescent assay; type: ADME, tissue-based; settings: 20000 µM, dose 0.2-20 mM
T2 sequence (P05177 whole entry): T1 sequence (P05177 whole entry)

Cytochrome P450 3A4 [5] = biological target: T3, Cytochrome P450 3A4 (Homo sapiens, UniProt P08684); test: as §3, with “CYP3A4” for “CYP1A2”, “luciferin-IPA” for “luciferin-1A2”; type: ADME, tissue-based; settings: 20000 µM, dose 0.2-20 mM
T3 sequence (P08684 whole entry): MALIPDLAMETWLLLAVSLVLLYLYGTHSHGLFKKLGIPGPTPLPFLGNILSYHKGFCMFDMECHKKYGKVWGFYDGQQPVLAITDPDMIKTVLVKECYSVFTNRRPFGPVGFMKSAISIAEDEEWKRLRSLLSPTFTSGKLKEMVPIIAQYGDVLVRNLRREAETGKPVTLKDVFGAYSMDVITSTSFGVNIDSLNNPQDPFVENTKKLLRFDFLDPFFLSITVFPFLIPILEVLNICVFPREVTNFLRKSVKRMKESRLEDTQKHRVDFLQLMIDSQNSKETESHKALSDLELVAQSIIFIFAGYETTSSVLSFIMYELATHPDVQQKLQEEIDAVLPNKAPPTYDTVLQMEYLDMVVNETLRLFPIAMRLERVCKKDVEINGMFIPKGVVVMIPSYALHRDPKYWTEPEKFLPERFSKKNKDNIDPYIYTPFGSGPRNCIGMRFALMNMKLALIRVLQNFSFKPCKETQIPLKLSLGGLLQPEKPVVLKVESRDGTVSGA

CYP2C9 [6] = biological target: T4, CYP2C9 (Homo sapiens, UniProt P11712); test: as §1, with “CYP2C9” for “CYP1A2”, “luciferin-H” for “luciferin-1A2”; type: ADME, tissue-based; settings: probe luciferin-H, with SKF-525A 50 uM
T4 sequence (P11712 whole entry): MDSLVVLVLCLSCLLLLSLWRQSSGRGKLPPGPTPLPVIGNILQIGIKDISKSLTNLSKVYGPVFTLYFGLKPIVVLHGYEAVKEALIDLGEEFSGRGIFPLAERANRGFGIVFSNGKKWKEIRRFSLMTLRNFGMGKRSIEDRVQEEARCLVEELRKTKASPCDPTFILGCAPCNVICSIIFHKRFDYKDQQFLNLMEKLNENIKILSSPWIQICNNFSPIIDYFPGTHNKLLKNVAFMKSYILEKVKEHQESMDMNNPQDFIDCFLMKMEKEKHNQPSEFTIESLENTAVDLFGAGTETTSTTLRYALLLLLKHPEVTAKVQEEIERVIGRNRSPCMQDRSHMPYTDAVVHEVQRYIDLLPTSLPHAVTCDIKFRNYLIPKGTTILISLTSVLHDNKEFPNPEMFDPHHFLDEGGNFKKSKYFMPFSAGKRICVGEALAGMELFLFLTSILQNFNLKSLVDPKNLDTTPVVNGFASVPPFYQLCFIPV

CYP3A4 [7] = biological target: T5, CYP3A4 (Homo sapiens, UniProt P08684); test: (§4) Inhibition of CYP3A4 in HBV-infected human HepaRG cells at 10 mM using luciferin-IPA as substrate treated for 1 hr on day 5 post-infection followed by removal of media and supplemented with fresh media and further incubated for 3 days then followed by treatment for 1 hr on day 8 post-infection followed by removal of media and supplemented with fresh media and further incubated for 3 days in presence of 50 uM SKF-525A and measured on day 11 post-infection by P450-Glo chemiluminescent assay relative to control; type: ADME, tissue-based; settings: probe luciferin-IPA, with SKF-525A 50 uM
T5 sequence (P08684 whole entry): as the sequence (P08684 whole entry) above

CYP3A4 [8] = biological target: T5, CYP3A4; test: as §1, with “CYP3A4” for “CYP1A2”, “luciferin-IPA” for “luciferin-1A2”; type: ADME, tissue-based; settings: probe luciferin-IPA, with SKF-525A 50 uM
CYP2C9 [9] = biological target: T4, CYP2C9; test: (§5) Inhibition of CYP2C9 in HBV-infected human HepaRG cells at 10 mM using luciferin-H as substrate treated for 1 hr on day 5 post-infection followed by removal of media and supplemented with fresh media and further incubated for 3 days by P450-Glo chemiluminescent assay relative to control; type: ADME, tissue-based; settings: probe luciferin-H
Hepatocyte [10] = test: as §2, with “against human primary hepatocytes infected with” for “against human HepaRG cells infected with”, “viability at 10 mM treated” for “viability at 0.2 to 20 mM treated”, “3 days in presence of 25 uM SKF-525A and measured” for “3 days and measured”; type: cell-based; settings: 10000 µM
Hepatitis B virus [11] = test: as §4, with “Antiviral activity against Hepatitis B virus infected” for “Inhibition of CYP3A4”, “in” for “in HBV-infected”, “primary hepatocytes assessed as reduction in HbsAg secretion level” for “HepaRG cells”, “mM” for “mM using luciferin-IPA as substrate”, “chemiluminescence immunostaining” for “P450-Glo chemiluminescent”; type: functional, organism-based; settings: Primary hepatocyte
Cytochrome P450 3A4 [12] = biological target: T3, Cytochrome P450 3A4; test: as §3, with “CYP3A4” for “CYP1A2”, “primary hepatocytes” for “HepaRG cells”, “luciferin-IPA” for “luciferin-1A2”; type: ADME, tissue-based, Primary hepatocyte; settings: 20000 µM, dose 0.2-20 mM
Cytochrome P450 2C9 [13] = biological target: T6, Cytochrome P450 2C9 (Homo sapiens, UniProt P11712); test: as §3, with “CYP2C9” for “CYP1A2”, “primary hepatocytes” for “HepaRG”, “luciferin-H” for “luciferin-1A2”; type: ADME, tissue-based, Primary hepatocyte; settings: 20000 µM, dose 0.2-20 mM
T6 sequence (P11712 whole entry): as the sequence (P11712 whole entry) above

HepaRG [14] = test: as §2, with “viability at 10 mM treated” for “viability at 0.2 to 20 mM treated”, “3 days in presence of 50 uM SKF-525A and measured” for “3 days and measured”; type: cell-based; settings: 10000 µM
Hepatitis B virus [15] = test: (§6) Antiviral activity against Hepatitis B virus infected in human HepaRG cells assessed as reduction in HbsAg secretion level at 10 mM treated for 1 hr on day 5 post-infection followed by removal of media and supplemented with fresh media and further incubated for 3 B37days then followed by treatment for 1 hr on day 8 post-infection followed by removal of media and supplemented with fresh media and further incubated for 3 days in presence of 50 uM SKF-525Aand measured on day 11 post-infection by chemiluminescence immunostaining assay; type: functional, organism-based
Cytochrome P450 2C9 [16] = biological target: T6, Cytochrome P450 2C9; test: as §3, with “CYP2C9” for “CYP1A2”, “luciferin-H” for “luciferin-1A2”; type: ADME, tissue-based; settings: 20000 µM, dose 0.2-20 mM
CYP3A4 [17] = biological target: T5, CYP3A4; test: Inhibition of CYP3A4 in HBV-infected human HepaRG cells at 10 mM using luciferin-IPA as substrate treated for 1 hr on day 5 post-infection followed by removal of media and supplemented with fresh media and further incubated for 3 days by P450-Glo chemiluminescent assay relative to control; type: ADME, tissue-based; settings: probe luciferin-IPA
Cytochrome P450 1A2 [18] = biological target: T2, Cytochrome P450 1A2; test: as §3, with “primary hepatocytes” for “HepaRG cells”; type: ADME, tissue-based; settings: heparg, 20000 µM, dose 0.2-20 mM
CYP1A2 [19] = biological target: T1, CYP1A2; test: Inhibition of CYP1A2 in HBV-infected human HepaRG cells at 10 mM using luciferin-1A2 as substrate treated for 1 hr on day 5 post-infection followed by removal of media and supplemented with fresh media and further incubated for 3 days by P450-Glo chemiluminescent assay relative to control; type: ADME, tissue-based; settings: probe luciferin-1A2
CYP1A2 [20] = biological target: T1, CYP1A2; test: as §4, with “CYP1A2” for “CYP3A4”, “luciferin-1A2” for “luciferin-IPA”; type: ADME, tissue-based; settings: probe luciferin-1A2, with SKF-525A 50 uM
Hepatocyte [21] = test: Cytotoxicity against human primary hepatocytes infected with HBV assessed as reduction in cell viability at 10 mM treated for 1 hr on day 5 post-infection followed by removal of media and supplemented with fresh media and further incubated for 3 days then followed by treatment for 1 hr on day 8 post-infection followed by removal of media and supplemented with fresh media and further incubated for 3 days in presence of 50 uM SKF-525A and measured on day 11 post-infection by Celltiter-Glo assay relative to control; type: cell-based
CYP2C9 [22] = biological target: T4, CYP2C9; test: as §5, with “days then followed by treatment for 1 hr on day 8 post-infection followed by removal of media and supplemented with fresh media and further incubated for 3 days and measured on day 11 post-infection” for “days”; type: ADME, tissue-based; settings: probe luciferin-H
Hepatitis B virus [23] = test: as §6, with “primary hepatocytes” for “HepaRG cells”, “days” for “B37days”, “25” for “50”, “SKF-525A and” for “SKF-525Aand”; type: functional, Primary hepatocyte; set-up: scale not given: the % may be the effect or the level left
CYP3A4 [24] = biological target: T5, CYP3A4; test: as §4, with “days” for “days in presence of 50 uM SKF-525A”; type: ADME, tissue-based; settings: probe luciferin-IPA
CYP2C9 [25] = biological target: T4, CYP2C9; test: as §4, with “CYP2C9” for “CYP3A4”, “luciferin-H” for “luciferin-IPA”; type: ADME, tissue-based; settings: probe luciferin-H, with SKF-525A 50 uM

In the case of Nn1nnc2ccccc21, the inhibition at 1 h, 10000 µM (CYP1A2 [1]) is reported as 39.2%, the inhibition at 1 h, 10000 µM (CYP1A2 [2]) is reported as 91% and the Activity (HepaRG [3]) is reported as “Non-Toxic”. The “inhibition (INH)” value (Cytochrome P450 1A2 [4]) was “Active”, the “inhibition (INH)” value (Cytochrome P450 3A4 [5]) was “Active” and the inhibition at 1 h, 10000 µM (CYP2C9 [6]) was 36.9%. It also gave an inhibition at 2 h, 10000 µM (CYP3A4 [7]) of 90.3%, an inhibition at 1 h, 10000 µM (CYP3A4 [8]) of 83.3% and an inhibition at 1 h, 10000 µM (CYP2C9 [9]) of -9.4%. For the same compound, the Activity (Hepatocyte [10]) was “Non-Toxic”, the Activity (Hepatitis B virus [11]) was “inactive” and the “inhibition (INH)” value (Cytochrome P450 3A4 [12]) was “Active”. The “inhibition (INH)” value (Cytochrome P450 2C9 [13]) was “Active”, the Activity (HepaRG [14]) was “Non-Toxic” and the Activity (Hepatitis B virus [15]) was “inactive”. For the same compound, the “inhibition (INH)” value (Cytochrome P450 2C9 [16]) was “Active”, the inhibition at 1 h, 10000 µM (CYP3A4 [17]) was 9.6% and the “inhibition (INH)” value (Cytochrome P450 1A2 [18]) was “Active”. The inhibition at 1 h, 10000 µM (CYP1A2 [19]) was 37.1%, the inhibition at 1 h, 10000 µM (CYP1A2 [20]) was 88.8% and the Activity (Hepatocyte [21]) was 10%. It also gave an inhibition at 1 h, 10000 µM (CYP2C9 [22]) of 67.5%, an Activity (Hepatitis B virus [23]) of 20% and an inhibition at 1 h, 50 µM (CYP3A4 [24]) of 87.8%. For the same compound, the inhibition at 1 h, 10000 µM (CYP2C9 [25]) was 82.1%.
